Measurements reported in patent publication US20040076659A1, “Additive for livestock feeds” (priority 1994, published 2004).

How the values were obtained:
wethers = test: In vivo digestibility trial, timothy hay sprayed with Tween 80; settings: sheep; about 0.3% Tween 80 in the ration
Experimental: Four […] weighing (72.5±15.0 kg) fitted with both rumen and duodenal cannula, were offered chopped medium quality timothy hay ad libitum. The hay was either sprayed with 500 ml water or 50 ml of […] dissolved in 500 ml of water. The feed was offered in two equal portions, at 08:30 and 20:30 hr. Water was available ad libitum. The experiment was designed as a 2×2 latin square with two 14-day adaptation, two 7-day collection periods. Estimates of the rates of passage of the two treated hays were made using chromium mordanted fibre (Cr) for the particulate phase and cobalt-ethylene diaminetetracetic acid (Co-EDTA) for the liquid phase. The method of Uden et al., “Investigation of chromium, cerium and cobalt as markers in digesta: Rate of Passage studies,” J. Sci. of Food and Agriculture 31:625-632 (1980), was used in the preparation of both markers. The sheep were adapted to the feed in individual pens, and then moved into digestibility cages for total collection and marker infusion. During the collection period, records of feed intake, faecal and urine output were maintained. 250 g subsamples of the faeces were collected daily, subsampled for DM determination, while the rest was dried under a drought oven. Urine was collected under 1N sulphuric acid. On the last day of the collection period, each sheep was given 50 g of Cr-mordanted fibre 1 hr prior to the evening feeding. In addition, 250 ml of Co-EDTA (0.1 g/ml) was infused intraruminally and the animals were then fed. Rumen digesta and duodenal sampling commenced 4 hr after dosing and continued at the same interval for 96 hr. Two samples of rumen fluid were collected: The first rumen fluid samples (30 ml) were preserved for microbial protein estimations by adding 7.5 ml of 0.9% NaCl in 37% formaldehyde solution. The samples were then stored at -20° C. after the preparation of a bacterial pellet by centrifugation at 27,000 g max for 15 min. A portion of the second rumen fluid and faecal samples was dried at 80° C. and ground in a coffee grinder (Braun, Inc. MA) for DM and Cr determination (Uden et al., 1980). Cr concentration in the samples was determined in duplicate by atomic absorption spectrophotometer (Perkin Elmer 560) using Cr standards (Fisher Scientific Co. NJ). The rest of the second rumen fluid sample was centrifuged at 10,000 g max for 10 min and the supernatants analyzed directly for cobalt using 0.1N HCL as the blank. Standards were prepared using cobalt chloride (Fisher Scientific Co. NJ). Marker concentrations were expressed per gram of dry sample. Other analyses included: acid and neutral detergent fibre (Goering and Van Soest, “Forage fiber analysis,” Agric. Handbook No. 379, p. 12 (1970)), total N (Parkinson and Allen, “A wet oxidation procedure suitable for the determination of nitrogen and mineral nutrients in biological materials,” Comm. Soil Sci. Plant Anal. 6:1 (1975)) for RNA concentrations of the rumen bacterial pellets and duodenal samples.

[1] = In vitro true digestibility (IVTD) of orchardgrass hay, Ankom in vitro system, 22 h
Experimental: The carriers were celite (Fisher Scientific Co. New Jersey, USA), diatomaceous earth (Sigma Chemical Co. St. Louis, Mo.) and LuctaCarrier (Lucta, S. A. Barcelona, Spain). Tween 80 was mixed with the carriers such that the resulting mixture contained 50% Tween 80 (wt/wt). The ability of Tween 80 in these mixtures to improve digestive efficiency was evaluated in vitro with orchardgrass hay that had been ground to pass through a 1 mm screen. Treatments included 0 (control), 0.1 and 0.2% liquid Tween 80, 0.1 and 0.2% Tween 80 in diatomaceous earth, 0.1 and 0.2% Tween 80 in celite, and 0.1 and 0.2% Tween 80 in LuctaCarrier. Appropriate quantities of each substrate were mixed with the additives and incubated in the Ankom in vitro system (Ankom Technology Fairport NY) for 22 h.

dairy cows = test: Two levels of Tween 80, milk production and feed intake in cows under heat stress (Example 5); format: in vivo, Holstein; settings: for Drop in milk production: week 11 (heat stress)
Description: Seventy-five dairy cows of the Holstein breed were ranked according to lactation number, days in milk and production level and placed into three equal groups. Treatments were then randomly assigned to individual animals within the groups. There were 25 animals in each dietary treatment group. Cows were offered ad libitum access to a total mixed ration (TMR) based on grass silage, corn silage, grass hay and a commercial dairy concentrate. The treatments consisted of:
Treatment 1—Control diet (TMR).
Treatment 2—TMR containing 0.2% (w/w) Tween 80, and
Treatment 3—TMR containing 0.3% (w/w) Tween 80.
The experiment lasted 12 weeks. All cows were fed the control diet during the first week. This period served as a pretrial week. Cows in each treatment group were then fed their experimental diets for ten weeks. Milk production and feed intake were, monitored from the first week (pretrial) until the 12th week (one week after the experimental diets were withdrawn).
Ambient temperatures exceeded 40° C. during weeks 10 and 11 of the experiment resulting in considerable heat stress in the cows. Milk production and feed intake data are discussed in the light of the heat stress.

Red Angus steers = test: Performance of feedlot cattle, 119 days (Example 6); format: in vivo
Experimental: Three hundred and twenty six Red Angus steers were stratified by weight and divided into eight pens. The pens were then randomly assigned to one of the following four dietary treatments:
3) 0.2% (wt/wt) glycanase enzyme (enzyme)
The enzyme is marketed by GNC Bioferm Inc., Saskatoon, SK. The product contained the following activities (expressed as nmol of reducing sugars released from 1 mg of product per min: xylanase (336.6), β-glucanase (196.0), carboxymethylcellulase (44.4), and amylase (46.3). The basal diet was a total mixed ration consisting of rolled barley, corn silage and canola meal. Tween 80 was diluted with tap water (1 in 5) before it was applied. The total amount of feed required each day for the animals on each treatment was weighed separately in a mixer wagon and the appropriate quantity of Tween 80, enzyme, or their combination applied to it and mixed for ten minutes before feeding. An equal volume of water as applied to the Tween 80 treatment was also applied to the control and enzyme treatment to make the moisture content of the four experimental diets equal. The experimental diets were fed for a total of 119 days. Individual body weights were taken at the beginning and end of the experiment. Group body weights were taken at monthly intervals.

[2] = first calf heifers, 0.2% Tween 80, second week of heat stress

## polyoxyethylene sorbitan monoleate [Tween 80]
wethers
  Digestibility, Acid detergent fibre: 52.68b (0.4) %
  Digestibility, Crude protein: 61.25b (0.5) %
  Digestibility, Dry matter: 64.70b (0.8) %
  Digestibility, Neutral detergent fibre: 60.63b (0.7) %
  Increase in digestibility compared to control: 18%
  Increase in intake compared to control: 5%
  Intake: 2.06b (0.1) % of the body weight
[1]; 0.1% Tween 80
  In vitro true digestibility (IVTD): 54.20%
[1]; 0.2% Tween 80
  In vitro true digestibility (IVTD): 54.93%
Dairy cows; 0.2% Tween 80, first 30 d
  Weight gain: 1 kg
Dairy cows; 0.2% Tween 80, first week of heat stress
  Depression in dry matter intake: 3.4%
Dairy cows; 0.2% Tween 80, last 60 days
  Weight gain: 9 kg
Dairy cows; 0.2% Tween 80, second week of heat stress
  Depression in dry matter intake: 14.4%
Dairy cows; 0.2% Tween 80
  Drop in milk production: 23.6%
Dairy cows; 0.3% Tween 80, first 30 d
  Weight gain: 2.5 kg
Dairy cows; 0.3% Tween 80, first week of heat stress
  Depression in dry matter intake: 6.0%
Dairy cows; 0.3% Tween 80, last 60 days
  Weight gain: 4.5 kg
Dairy cows; 0.3% Tween 80, second week of heat stress
  Depression in dry matter intake: 12.6%
Dairy cows; 0.3% Tween 80
  Drop in milk production: 22%
Dairy cows; Tween 80 treatments (0.2 and 0.3%), first week of heat stress (week 10)
  Fall in milk production: about 11%
Dairy cows; first calf heifers, 0.2% Tween 80
  More milk than control, on average: 2 kg/day
Dairy cows; [2]
  Increase in milk over control: 13.6%
  More milk than control: more than 3.6 kg/day
Dairy cows; mature cows, 0.2% Tween 80
  More milk than control, on average: 3.54 kg/day
Dairy cows; mature cows, 0.3% Tween 80
  More milk than control, on average: 3.98 kg/day
Red Angus steers; 0.1% Tween 80
  Average Daily Gain: 1.69a kg/d
  Average daily gain higher than control: 6.3%
  Feed Efficiency (Gain/Feed): 0.166
  More weight gained than animals on the control diet: approximately 5.8%
Red Angus steers; 0.1% Tween 80 (dry matter basis)
  Total Weight Gain: 219.03a kg
